The values that follow come from patent publication US20250049806A1, “PHARMACEUTICAL COMPOSITION FOR PROVIDING TREATMENT FOR OR PREVENTING ALPORT SYNDROME” (UBE Corporation, priority 2021, published 2025).

SMILES strings stand for the structures. Where only a bound is given, the exact number is not on record here.

Broadly, the Papp A→B is the apparent permeability from the apical to the basolateral side of a cell layer. Lower therefore signals poor permeation.

This data set can be described thus: Transcellular transport test using Caco2 cell. Conditions: human, Caco-2, apical-to-basolateral (A-to-B), pH=7.4, 10 µM compound. Type of data set: in vitro ADME. As for the experimental part: Caco2 cells (purchased from ATCC) were cultured in DMEM medium (Thermo Fisher Scientific, Inc., 11965) containing 10% FBS (Thermo Fisher Scientific, Inc., 10082) and 1% penicillin/streptomycin/amphotericin B (Thermo Fisher Scientific, Inc., 15240). A transcellular transport test was carried out in accordance with MultiScreen Caco2 Drug Transport Assembly in a 96-well system (Application Note AN1727EN, MultiScreen Caco-2 Assay System, Merck) by partially modifying it. The Caco2 cells were inoculated at a cell density of 4×10^4 cells/well onto a micropore polycarbonate insert of a 96-well plate (Merck, Millcell-96 culture insert plate 0.4 μm pore size, well membrane area=0.11 cm^2, PSHT004S5) and cultured for 20 to 22 days, and the resulting monolayer was used in the transcellular transport test. The medium of the inoculated cells was replaced with a fresh one every 3 to 4 days.
Apical-to-basolateral (A-to-B) transport in the Caco2 cell monolayer membrane was performed by using HBSS (Thermo Fisher Scientific, Inc., 14025) medium (pH=7.4) containing 20 mM HEPES (Thermo Fisher Scientific, Inc., 15630), and adding HEPES-containing HBSS medium containing 10 µM compound (a 10 mM solution of the compound in DMSO was added at a 1000-fold dilution; final DMSO concentration: 0.1%) at 75 μL/well to the apical side and HEPES-containing HBSS medium supplemented with no compound at 250 μL/well to the basolateral side, followed by culture at 37° C. for 90 minutes. After culture, a 100 μL aliquot was collected from the basolateral side, and the concentration of a permeated compound was measured by LC-MS/MS under measurement conditions mentioned later. Papp (apparent permeability; cm/sec) was calculated from the determined concentration. Papp was determined according to the expression given below by calculating the slope (dA/dt; nmol/sec) of a straight line drawn between two points 0 minutes and zero amount of the compound in a graph plotted with an assay time (90 min) on the abscissa against the amount of the compound in the solution on the permeated side on the ordinate. As for an assay concentration, the concentration in the compound in the HEPES-containing HBSS medium containing the added compound was measured by UV-HPLC under measurement conditions mentioned later.
C0: assay concentration, S: plate membrane area=0.11 cm^2
• LC: LC20 or LC30 HPLC system manufactured by Shimadzu Corp. • Column: Phenomenex Kinetex C18 (50 mm×2.1 mm, 2.6 μm) • Column temperature: 40° C. • Flow rate: 0.3 mL/min • Mobile phase A: 0.1% aqueous formic acid solution • Mobile phase B: 0.1% formic acid, 50% acetonitrile/methanol mixed solution • Gradient: 0-2 min; A/B=90/10 to 10/90, 2-3 min; A/B=10/90, 3-3.01 min; A/B=10/90 to 90/10 • MS: Q-Trap3200 manufactured by AB Sciex Pte. Ltd. • Ionization: ESI • Mode: Positive
• LC: LC20 or LC30 HPLC system manufactured by Shimadzu Corp. • Column: Phenomenex Kinetex C18 (100 mm×2.1 mm, 2.6 μm) • Column temperature: 40° C. • Flow rate: 0.25 mL/min • Mobile phase A: 0.1% aqueous formic acid solution • Mobile phase B: 0.1% formic acid, 50% acetonitrile/methanol mixed solution • Gradient: 0-3 min; A/B=90/10, 3-11 min; A/B=90/10 to 5/95, 11-15 min; A/B=5/95, 15-15.1 min; A/B=5/95 to 90/10 • UV detector: photodiode array detector
A: Papp>1×10^−6 (cm/sec), B: 1×10^−6 (cm/sec)≥Papp>5×10^−7 (cm/sec), C: 5×10^−7 (cm/sec)≥Papp>1×10^−7 (cm/sec), or D: Papp≤1×10^−7 (cm/sec).
Background: Passage across Caco-2 layers is used to estimate intestinal permeability.
Regarding `O=C(O)C[C@H](NC(=O)CNC(=O)c1cc(NC2=NCC(F)CN2)c2cn[nH]c2c1)c1cc(Cl)cc(C(F)(F)F)c1` (stereo partly shown) [1-(b)], the Papp A→B at 90 min, 10 µM is > 1 ×10⁻⁶ cm/s.

In turn, `O=C(O)C[C@H](NC(=O)CNC(=O)c1cc(NC2=NCC(F)CN2)c2cn[nH]c2c1)c1cc(Br)cc(C(F)(F)F)c1` (stereo partly drawn) [2-(b), (3S)-3-(3-bromo-5-(trifluoromethyl)phenyl)-3-(2-(4-((5-fluoro-1,4,5,6-tetrahydropyrimidin-2-yl)amino)-1H-indazole-6-carboxamido)acetamido)propanoic acid] had a Papp A→B at 90 min, 10 µM of 0.5 to 1 ×10⁻⁶ cm/s.

`O=C(O)C[C@H](NC(=O)CNC(=O)c1cc(NC2=NCC(F)CN2)c2cn[nH]c2c1)c1cc(I)cc(C(F)(F)F)c1` (stereo partly drawn) [3-(b), (3S)-3-(2-(4-((5-fluoro-1,4,5,6-tetrahydropyrimidin-2-yl)amino)-1H-indazole-6-carboxamido)acetamido)-3-(3-iodo-5-(trifluoromethyl)phenyl)propanoic acid]: the Papp A→B at 90 min, 10 µM was > 1 ×10⁻⁶ cm/s.

Regarding `Cc1cc([C@H](CC(=O)O)NC(=O)CNC(=O)c2cc(NC3=NCC(F)CN3)c3cn[nH]c3c2)cc(C(F)(F)F)c1` (stereo partly drawn) [4-(b), (3S)-3-(2-(4-((5-fluoro-1,4,5,6-tetrahydropyrimidin-2-yl)amino)-1H-indazole-6-carboxamido)acetamido)-3-(3-methyl-5-(trifluoromethyl)phenyl)propanoic acid], the apical-to-basolateral permeability (Papp A→B) at 90 min, 10 µM was > 1 ×10⁻⁶ cm/s.

`COc1cc([C@H](CC(=O)O)NC(=O)CNC(=O)c2cc(NC3=NCC(F)CN3)c3cn[nH]c3c2)cc(C(F)(F)F)c1` (stereo partly drawn) [5-(b), (3S)-3-(2-(4-((5-fluoro-1,4,5,6-tetrahydropyrimidin-2-yl)amino)-1H-indazole-6-carboxamido)acetamido)-3-(3-methoxy-5-(trifluoromethyl)phenyl)propanoic acid] returned a Papp A→B at 90 min, 10 µM of 0.5 to 1 ×10⁻⁶ cm/s.

In the case of `O=C(O)C[C@H](NC(=O)CNC(=O)c1cc(NC2=NCC(F)CN2)c2cn[nH]c2c1)c1cc(F)cc(C(F)(F)F)c1` (stereo partly drawn) [6-(b), (3S)-3-(2-(4-((5-fluoro-1,4,5,6-tetrahydropyrimidin-2-yl)amino)-1H-indazole-6-carboxamido)acetamido)-3-(3-fluoro-5-(trifluoromethyl)phenyl)propanoic acid], the Papp A→B at 90 min, 10 µM was > 1 ×10⁻⁶ cm/s.

`O=C(O)C[C@H](NC(=O)CNC(=O)c1cc(NC2=NCC(F)CN2)c2cn[nH]c2c1)c1cc(C(F)(F)F)cc(C(F)(F)F)c1` (stereo partly drawn) [7-(b), (3S)-3-(3,5-bis(trifluoromethyl)phenyl)-3-(2-(4-((5-fluoro-1,4,5,6-tetrahydropyrimidin-2-yl)amino)-1H-indazole-6-carboxamido)acetamido)propanoic acid] gave a Papp A→B at 90 min, 10 µM of 0.5 to 1 ×10⁻⁶ cm/s.

In turn, `O=C(O)C[C@H](NC(=O)CNC(=O)c1cc(NC2=NCC(F)CN2)c2cn[nH]c2c1)c1cc(-n2cccn2)cc(C(F)(F)F)c1` (stereo partly drawn) [8-(b), (3S)-3-(3-(1H-pyrazol-1-yl)-5-(trifluoromethyl)phenyl)-3-(2-(4-((5-fluoro-1,4,5,6-tetrahydropyrimidin-2-yl)amino)-1H-indazole-6-carboxamido)acetamido)propanoic acid] displayed a Papp A→B at 90 min, 10 µM of 0.5 to 1 ×10⁻⁶ cm/s.

For the molecule `O=C(O)C[C@H](NC(=O)CNC(=O)c1cc(NC2=NCC(F)CN2)c2cn[nH]c2c1)c1cccc(C(F)(F)F)c1F` (stereo partly drawn) [9-(b), (3S)-3-(2-(4-((5-fluoro-1,4,5,6-tetrahydropyrimidin-2-yl)amino)-1H-indazole-6-carboxamido)acetamido)-3-(2-fluoro-3-(trifluoromethyl)phenyl)propanoic acid], the Papp A→B at 90 min, 10 µM is > 1 ×10⁻⁶ cm/s.

On to `O=C(O)C[C@H](NC(=O)CNC(=O)c1cc(NC2=NCC(F)CN2)c2cn[nH]c2c1)c1cccc(C(F)(F)F)c1Cl` (stereo partly drawn) [10-(b), (3S)-3-(2-chloro-3-(trifluoromethyl)phenyl)-3-(2-(4-((5-fluoro-1,4,5,6-tetrahydropyrimidin-2-yl)amino)-1H-indazole-6-carboxamido)acetamido)propanoic acid], for which the Papp A→B at 90 min, 10 µM was > 1 ×10⁻⁶ cm/s.
